What was measured:
Assay in all cases: relative viability (nuclei count vs DMSO), 5 days (fraction); higher = more cells survive
Wnt-C59 + Bortezomib = compound: CC1=NC=CC(=C1)C2=CC=C(C=C2)CC(=O)NC3=CC=C(C=C3)C4=CN=CC=C4 [Wnt-C59] + CC(C)C[C@H](NC(=O)[C@H](Cc1ccccc1)NC(=O)c1cnccn1)B(O)O [Bortezomib] (partner 0.002 µM)
In short: (§1)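 Each reported value is a median over duplicate plates. It expresses relative viability: treated-well nuclei count divided by vehicle-well nuclei count. Lung cancer cell lines in 1536-well plates were dosed by pin tool a day after seeding, alone with one drug or with a fixed anchor-drug dose plus five library-drug doses (not always all listed) in √10 steps, and nuclei were counted after 5 days.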

Wnt-C59 + Navitoclax = compound: CC1=NC=CC(=C1)C2=CC=C(C=C2)CC(=O)NC3=CC=C(C=C3)C4=CN=CC=C4 [Wnt-C59] + CC1(C)CCC(c2ccc(Cl)cc2)=C(CN2CCN(c3ccc(C(=O)NS(=O)(=O)c4ccc(N[C@H](CCN5CCOCC5)CSc5ccccc5)c(S(=O)(=O)C(F)(F)F)c4)cc3)CC2)C1 [Navitoclax] (partner 0.5 µM)
In short: as §1

Wnt-C59 + Pemetrexed = compound: CC1=NC=CC(=C1)C2=CC=C(C=C2)CC(=O)NC3=CC=C(C=C3)C4=CN=CC=C4 [Wnt-C59] + Nc1nc2[nH]cc(CCc3ccc(C(=O)N[C@@H](CCC(=O)O)C(=O)O)cc3)c2c(=O)[nH]1 [Pemetrexed] (partner 0.2 µM)
In short: as §1

Lapatinib + Tozasertib = compound: CS(=O)(=O)CCNCc1ccc(-c2ccc3ncnc(Nc4ccc(OCc5cccc(F)c5)c(Cl)c4)c3c2)o1 [Lapatinib] + Cc1cc(Nc2cc(N3CCN(C)CC3)nc(Sc3ccc(NC(=O)C4CC4)cc3)n2)n[nH]1 [Tozasertib] (partner 0.1 µM)
In short: as §1

In the case of SW 1573, the relative viability (Wnt-C59 + Bortezomib; first compound 0.001 µM) is reported as 1.04, the relative viability (Wnt-C59 + Bortezomib; first compound 0.01 µM) is reported as 1.1 and the relative viability (Wnt-C59 + Bortezomib; first compound 0.03162 µM) is reported as 1.11. For the same cell line, the relative viability (Wnt-C59 + Bortezomib; first compound 0.1 µM) was 1.04, the relative viability (Wnt-C59 + Navitoclax; first compound 0.001 µM) was 1.03 and the relative viability (Wnt-C59 + Navitoclax; first compound 0.01 µM) was 1.04. It also gave a relative viability (Wnt-C59 + Navitoclax; first compound 0.03162 µM) of 1.09, a relative viability (Wnt-C59 + Navitoclax; first compound 0.1 µM) of 0.989 and a relative viability (Wnt-C59 + Pemetrexed; first compound 0.001 µM) of 0.863. The relative viability (Wnt-C59 + Pemetrexed; first compound 0.01 µM) was 0.848, the relative viability (Wnt-C59 + Pemetrexed; first compound 0.03162 µM) was 0.879 and the relative viability (Wnt-C59 + Pemetrexed; first compound 0.1 µM) was 0.761. The relative viability (Lapatinib + Tozasertib; first compound 0.02 µM) was 0.121, the relative viability (Lapatinib + Tozasertib; first compound 0.06325 µM) was 0.164 and the relative viability (Lapatinib + Tozasertib; first compound 0.2 µM) was 0.143. It also gave a relative viability (Lapatinib + Tozasertib; first compound 0.6325 µM) of 0.12 and a relative viability (Lapatinib + Tozasertib; first compound 2 µM) of 0.159.
